BindingDB's records for doi:10.1016/j.bmc.2012.03.044 (University of Mansoura, 2012)

Molecular target: T1, Prostaglandin G/H synthase 1 (Ovis aries, UniProt P05979)
T1 sequence (P05979 whole entry): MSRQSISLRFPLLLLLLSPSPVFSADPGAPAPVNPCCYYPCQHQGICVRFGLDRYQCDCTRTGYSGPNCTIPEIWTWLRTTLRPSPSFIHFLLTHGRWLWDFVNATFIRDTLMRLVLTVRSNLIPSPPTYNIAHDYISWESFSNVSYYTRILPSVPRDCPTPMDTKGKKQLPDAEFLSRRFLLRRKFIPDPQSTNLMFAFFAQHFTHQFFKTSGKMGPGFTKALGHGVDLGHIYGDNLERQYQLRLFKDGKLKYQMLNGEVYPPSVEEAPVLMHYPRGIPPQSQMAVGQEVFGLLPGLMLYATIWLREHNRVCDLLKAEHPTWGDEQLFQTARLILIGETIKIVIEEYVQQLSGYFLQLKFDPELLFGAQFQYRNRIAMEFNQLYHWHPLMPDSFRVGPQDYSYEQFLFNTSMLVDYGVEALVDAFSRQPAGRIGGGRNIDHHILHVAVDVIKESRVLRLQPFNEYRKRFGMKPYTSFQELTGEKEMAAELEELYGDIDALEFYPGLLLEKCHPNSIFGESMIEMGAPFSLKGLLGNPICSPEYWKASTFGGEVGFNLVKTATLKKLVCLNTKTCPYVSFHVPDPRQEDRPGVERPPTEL
Test: Inhibition of ovine COX1 by enzyme immuno assay

Row | IC50 [µM] | Compound
1 | > 50 | O=C1Nc2ccc(F)cc2C12CC(c1ccc(Br)cc1)N=N2 (configuration not stated)
2 | > 50 | Cc1ccc(C2CC3(N=N2)C(=O)Nc2ccc(F)cc23)cc1 (configuration not stated)
